Laboratory results published in PMC8310135 (Viruses, 2021).
Where a name gives a salt, the structure may show the parent alone. Read-outs that look alike come from different tables or passages of the source.

Tests used:
[1] = in vitro; details: human; for CC50: CC50 (50% cell cytotoxicity concentration)
[2] = system: wt LUJV; format: cell-based, Lujo virus
[3] = system: rLUJV/ZsG; experiment: microbe, parasite or virus in culture; format: cell-based, Lujo virus; details: for activity at 0.05 µM / activity at 0.5 µM / activity at 5 µM: Huh-7, read-out: Relative ZsG (%) Mean; for activity at 0.05 µM: 50 nM; for activity at 0.5 µM: 500 nM; for activity at 5 µM: 5000 nM
[4] = system: JUNV; details: cited from earlier work
[5] = system: Huh7 cells; details: human
[6] = system: LASV; details: read-out: EC50 for LASV inhibition; cited from earlier work
[7] = system: LUJV; details: cited from earlier work
[8] = system: LASV; details: read-out: EC50 against LASV; cited from earlier work
[9] = system: LASV; details: read-out: EC50 reported for LASV; cited from earlier work
[10] = system: JUNV; details: read-out: EC50 reported for JUNV; cited from earlier work
[11] = Mammarenavirus lujoense, Huh-7, read-out: EC50 (concentration inhibiting ZsG expression by 50%)
[12] = read-out: EC50 (concentration inhibiting ZsG expression by 50%)

Compound | viability [1] | viability at 0.05 µM [1] | viability at 0.5 µM [1] | viability at 5 µM [1] | CC50 [1] | reduction of wt LUJV viral titers [2] | EC50 [3, 11] | activity at 0.05 µM ([3]; Mammarenavirus lujoense) | activity at 0.5 µM ([3]; Mammarenavirus lujoense) | activity at 5 µM ([3]; Mammarenavirus lujoense) | EC50 [3, 12] | reduction of JUNV titers [4] | CC50 [5] | SI (selectivity index, CC50 divided by EC50) [3] | EC50 [6] | inhibition of LUJV [7] | EC50 [8] | EC50 [9] | EC50 [10]
Nc1ccn([C@@H]2O[C@H](CO)[C@@H](O)[C@H]2F)c(=O)n1 [2′-deoxy-2′-fluorocytidine (2-dFC), 2′-deoxy-2′-fluorocytidine] | > 75% | 117% | 98% | 105% | > 50000 nM | approximately 4 logs | 540 ± 210 nM | 90% | 27% | 2% | 533 ± 205 nM | – | – | – | – | – | – | – | –
CC[C@H](CC#N)OC(=O)N[C@@H](C)c1cccc(NC(=O)Nc2ccc(-c3cnco3)c(OC)c2)c1 [AVN-944] | > 75% | 103% | 97% | 64% | > 12500 nM | approximately 4 logs | 200 ± 90 nM | 43% | 4% | 1% | 201 ± 89 nM | > 90% | – | – | – | – | – | – | –
CN(C)C/C=C/C(=O)Nc1cc2c(Nc3ccc(F)c(Cl)c3)ncnc2cc1O[C@H]1CCOC1 [Afatinib] | – | 126% | 136% | 60% | 7640 ± 700 nM | – | 2260 ± 730 nM | 76% | 74% | 2% | 2260 ± 734 nM | – | 7640 ± 699 nM | 3.4 | – | – | – | – | –
Cc1cccc(/C=N/Nc2cc(N3CCOCC3)nc(OCCc3ccccn3)n2)c1 [Apilimod] | > 75% | 130% | 115% | 80% | 14400 ± 3240 nM | approximately 4 logs | 1440 ± 600 nM | 91% | 45% | 24% | 1440 ± 637 nM | – | – | – | 50 nM | – | – | – | –
O=C(NCCCNc1nc(Nc2cccc(NC(=O)N3CCCC3)c2)ncc1I)c1cccs1 [BX-795] | > 75% | 128% | 105% | 60% | 9910 ± 1090 nM | approximately 4 logs | 600 ± 270 nM | 80% | 41% | 9% | 598 ± 274 nM | – | 9910 ± 1090 nM | – | – | – | – | – | –
Cc1c(-c2ccc(O)cc2)n(Cc2ccc(OCCN3CCCCCC3)cc2)c2ccc(O)cc12 [Bazedoxifene HCL] | – | 141% | 147% | 84% | 6680 ± 2080 nM | – | 1720 ± 790 nM | 110% | 103% | 2% | 1720 ± 481 nM | – | 6680 ± 2080 nM | 3.9 | – | – | – | – | –
Cc1c(-c2ccc(-c3ccccc3F)cc2)nc2ccc(F)cc2c1C(=O)O [Brequinar] | > 75% | 113% | 85% | 67% | > 12500 nM | approximately 4 logs | 110 ± 20 nM | 27% | 2% | 2% | 109 ± 15 nM | – | – | – | – | – | – | – | –
NC(=O)c1nc(F)c[nH]c1=O [Favipiravir (T-705), Favipiravir] | > 75% | 101% | 104% | 96% | > 50000 nM | approximately 4 logs | 2950 ± 690 nM | 94% | 95% | 22% | 2950 ± 693 nM | – | – | – | – | – | – | – | –
C[C@@H](c1nc(-c2ccc(C#N)cc2)cs1)[C@](O)(Cn1cncn1)c1cc(F)ccc1F [Isavucanazole] | – | 114% | 121% | 75% | 12700 ± 3970 nM | – | 6100 ± 900 nM | 73% | 75% | 34% | 6110 ± 926 nM | – | – | 2.1 | – | did not inhibit | 1200 nM | – | –
COc1c(C)c2c(c(O)c1C/C=C(\C)CCC(=O)O)C(=O)OC2 [Mycophenolic acid (MPA), Mycophenolic acid] | – | 132% | 100% | 48% | 2000 ± 400 nM | – | 240 ± 100 nM | 72% | 7% | 2% | 238 ± 97 nM | – | 2040 nM | 8.6 | – | – | – | – | –
O=C(Nc1ccc([N+](=O)[O-])cc1Cl)c1cc(Cl)ccc1O [Niclosamide] | – | 77% | 2% | 1% | 270 nM | – | 90 nM | 30% | 2% | 2% | 85 ± 29 nM | – | 272 ± 34 nM | 3.2 | 80 nM | – | – | – | –
COC1=CC(c2cc3ccccc3[nH]2)=N/C1=C\c1[nH]c(C)cc1C [Obatoclax] | – | 130% | 25% | 2% | 1500 ± 330 nM | – | 360 ± 100 nM | 36% | 4% | 10% | 355 ± 105 nM | – | 1500 ± 332 nM | 4.2 | – | – | – | – | –
O=C(c1ccc(OCCN2CCCCC2)cc1)c1c(-c2ccc(O)cc2)sc2cc(O)ccc12 [Raloxifene (Evista), Raloxifene] | – | 139% | 136% | 86% | 9300 ± 1300 nM | – | 1500 ± 793 nM | 87% | 89% | 3% | – | – | 9300 ± 1310 nM | 6.2 | – | – | – | – | –
NC(=O)c1ncn([C@@H]2O[C@H](CO)[C@@H](O)[C@H]2O)n1 [Ribavirin] | – | 124% | 122% | 133% | > 50000 nM | – | 11100 ± 1400 nM | 94% | 73% | 63% | – | – | – | – | – | – | – | 2470 nM | 18300 nM
CC/C(=C(\c1ccccc1)c1ccc(OCCN(C)C)cc1)c1ccccc1 [Tamoxifene citrate] | – | 123% | 123% | 85% | 7370 ± 1040 nM | – | 3590 ± 720 nM | 84% | 78% | 2% | 3590 ± 724 nM | – | 7370 ± 1040 nM | 2.1 | – | – | – | – | –
